These results are taken from ChEMBL document CHEMBL5523671, “ω-(5-Phenyl-2H-tetrazol-2-yl)alkyl-substituted glycine amides and related compounds as inhibitors of the amine oxidase vascular adhesion protein-1 (VAP-1)” (Bioorg Med Chem, 2024).

For orientation: IC50 means the concentration that gives 50% inhibition. What is called inhibition is how much of the control response was suppressed.

In series [1] the target is T1, Amine oxidase [copper-containing] 3 (Bos taurus, UniProt Q9TTK6).
T1 sequence (Q9TTK6 whole entry): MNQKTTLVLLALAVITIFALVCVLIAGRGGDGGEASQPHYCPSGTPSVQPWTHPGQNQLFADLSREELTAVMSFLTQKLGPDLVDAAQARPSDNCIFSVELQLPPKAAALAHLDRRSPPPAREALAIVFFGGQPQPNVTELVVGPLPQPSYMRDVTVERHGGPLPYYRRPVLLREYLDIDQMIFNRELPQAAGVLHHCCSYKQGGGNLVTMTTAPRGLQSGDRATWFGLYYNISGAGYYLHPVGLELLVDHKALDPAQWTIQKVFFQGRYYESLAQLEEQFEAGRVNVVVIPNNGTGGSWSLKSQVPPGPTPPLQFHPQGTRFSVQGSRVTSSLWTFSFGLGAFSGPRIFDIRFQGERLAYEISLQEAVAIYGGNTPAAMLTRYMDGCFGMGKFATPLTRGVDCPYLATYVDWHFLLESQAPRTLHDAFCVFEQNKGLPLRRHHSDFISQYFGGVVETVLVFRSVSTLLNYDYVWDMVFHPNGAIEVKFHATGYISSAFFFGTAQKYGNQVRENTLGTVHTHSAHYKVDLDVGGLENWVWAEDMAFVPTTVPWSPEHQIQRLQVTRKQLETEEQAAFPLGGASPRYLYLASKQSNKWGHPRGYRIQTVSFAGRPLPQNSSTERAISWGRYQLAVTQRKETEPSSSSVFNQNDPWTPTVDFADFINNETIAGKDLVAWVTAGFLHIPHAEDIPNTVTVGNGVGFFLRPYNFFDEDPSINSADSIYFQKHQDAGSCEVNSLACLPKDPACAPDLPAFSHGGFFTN
The series can be described thus: Inhibition of bovine plasma VAP-1 using 6-(5-Pheny1-2H-tetrazol-2-yl)hexan-1-amine as substrate preincubated with enzyme for 15 mins followed by substrate addition measured after 30 mins by UV-HPLC analysis. It is filed as cell-free.

Series [2] addresses T1, Amine oxidase [copper-containing] 3. The experiment in a line: Inhibition of bovine plasma VAP-1 using 6-(5-Pheny1-2H-tetrazol-2-yl)hexan-1-amine as substrate measured after 30 mins by UV-HPLC analysis. It is filed as cell-free.
The target of series [3] is T2, VAP-1 (amine oxidase [copper-containing] 3) (Bos taurus, UniProt Q9TTK6).
T2 sequence (Q9TTK6 whole entry): T1 sequence (Q9TTK6 whole entry)
The series can be described thus: Stability of compound assessed as bovine plasma VAP-1 mediated drug degradation by measuring parent compound remaining at 10 uM incubated for 15 mins by HPLC-MS analysis. The settings on record: cattle, bovine plasma VAP-1 (amine oxidase [copper-containing] 3), read-out: Stability. It is filed as ADME, cell-free.

Series [4] has as its target T2, VAP-1 (amine oxidase [copper-containing] 3). The series can be described thus: Stability of compound assessed as bovine plasma VAP-1 mediated drug degradation by measuring parent compound remaining at 10 uM incubated for 30 mins by HPLC-MS analysis. It is filed as ADME, cell-free. The settings on record: cattle, bovine plasma VAP-1 (amine oxidase [copper-containing] 3), read-out: Stability.

The target is the same in series [5]. The experiment in a line: Stability of compound assessed as bovine plasma VAP-1 mediated drug degradation by measuring parent compound remaining at 10 uM incubated for 60 mins by HPLC-MS analysis. It is filed as ADME, cell-free. The note with it: cattle, bovine plasma VAP-1 (amine oxidase [copper-containing] 3), read-out: Stability.
For series [6] the target is unchanged. The series can be described thus: Stability of compound assessed as bovine plasma VAP-1 mediated drug degradation by measuring parent compound remaining at 10 uM incubated for 120 mins by HPLC-MS analysis. The settings on record: cattle, bovine plasma VAP-1 (amine oxidase [copper-containing] 3), read-out: Stability. It is filed as ADME, cell-free.
The target is the same in series [7]. The series can be described thus: Stability of compound assessed as bovine plasma VAP-1 mediated drug degradation by measuring parent compound remaining at 1 uM incubated for 15 mins by HPLC-MS analysis. It is filed as ADME, cell-free. The settings on record: cattle, bovine plasma VAP-1 (amine oxidase [copper-containing] 3), read-out: Stability.
The target is the same in series [8]. The experiment in a line: Stability of compound assessed as bovine plasma VAP-1 mediated drug degradation by measuring parent compound remaining at 1 uM incubated for 30 mins by HPLC-MS analysis. It is filed as ADME, cell-free. The note with it: cattle, bovine plasma VAP-1 (amine oxidase [copper-containing] 3), read-out: Stability.
The target is the same in series [9]. The experiment in a line: Stability of compound assessed as bovine plasma VAP-1 mediated drug degradation by measuring parent compound remaining at 1 uM incubated for 60 mins by HPLC-MS analysis. The note with it: cattle, bovine plasma VAP-1 (amine oxidase [copper-containing] 3), read-out: Stability. It is filed as ADME, cell-free.
The target is the same in series [10]. The experiment in a line: Stability of compound assessed as bovine plasma VAP-1 mediated drug degradation by measuring parent compound remaining at 1 uM incubated for 120 mins by HPLC-MS analysis. It is filed as ADME, cell-free. The settings on record: cattle, bovine plasma VAP-1 (amine oxidase [copper-containing] 3), read-out: Stability.
Series [11] deals with T3, Amine oxidase [copper-containing] 3 (Homo sapiens, UniProt Q16853).
T3 sequence (Q16853 whole entry): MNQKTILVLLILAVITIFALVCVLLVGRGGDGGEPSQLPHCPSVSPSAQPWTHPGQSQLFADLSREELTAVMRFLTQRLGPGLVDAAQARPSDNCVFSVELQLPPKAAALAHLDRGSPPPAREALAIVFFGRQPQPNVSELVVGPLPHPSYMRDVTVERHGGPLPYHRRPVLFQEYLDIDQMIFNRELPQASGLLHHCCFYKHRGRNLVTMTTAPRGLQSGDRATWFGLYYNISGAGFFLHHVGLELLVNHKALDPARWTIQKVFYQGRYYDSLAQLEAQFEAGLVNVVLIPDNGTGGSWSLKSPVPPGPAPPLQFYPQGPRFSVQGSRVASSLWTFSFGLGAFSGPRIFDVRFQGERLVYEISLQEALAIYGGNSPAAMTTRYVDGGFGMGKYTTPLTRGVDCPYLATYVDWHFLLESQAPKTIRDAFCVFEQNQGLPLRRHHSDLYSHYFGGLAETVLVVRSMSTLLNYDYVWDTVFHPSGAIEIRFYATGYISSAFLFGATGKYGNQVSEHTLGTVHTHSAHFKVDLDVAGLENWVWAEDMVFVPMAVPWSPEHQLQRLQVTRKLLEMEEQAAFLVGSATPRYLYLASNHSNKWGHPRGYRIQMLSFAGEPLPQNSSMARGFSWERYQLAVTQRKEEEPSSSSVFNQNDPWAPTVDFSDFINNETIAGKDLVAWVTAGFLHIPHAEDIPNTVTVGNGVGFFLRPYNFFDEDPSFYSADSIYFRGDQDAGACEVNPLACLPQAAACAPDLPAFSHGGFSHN
The experiment in a line: Inhibition of human plasma VAP-1 using 6-(5-Pheny1-2H-tetrazol-2-yl)hexan-1-amine as substrate preincubated with enzyme for 15 mins followed by substrate addition measured after 120 mins by UV-HPLC analysis. It is filed as cell-free.

Series [12] in a line: Selectivity index, ratio of IC50 for human plasma VAP-1 to IC50 for bovine plasma VAP-1.
A short description of series [13]: Selectivity index, ratio of IC50 for porcine kidney DAO to IC50 for bovine plasma VAP-1.
Series [14] concerns the target T1, Amine oxidase [copper-containing] 3. The experiment in a line: Stability of compound assessed as bovine plasma VAP-1 mediated drug degradation by measuring formation of aldehyde metabolite at 1 to 10 uM incubated for 60 to 120 mins by HPLC-MS analysis. It is filed as ADME, cell-free. The settings on record: cattle, dose lower 1 µM, time lower 60 min, dose upper 10 µM, time upper 120 min.

In series [15] the target is T4, Amine oxidase [copper-containing] 3 (Homo sapiens) (UniProt Q16853).
T4 sequence (whole entry): T3 sequence (Q16853 whole entry)
The experiment in a line: Inhibition of human plasma VAP-1 using 6-(5-Pheny1-2H-tetrazol-2-yl)hexan-1-amine as substrate at 100 uM preincubated with enzyme for 15 mins followed by substrate addition measured after 120 mins by UV-HPLC analysis relative to control. It is filed as cell-free. The note with it: time 135.0 min.

Series [16] has as its target T4, Amine oxidase [copper-containing] 3 (Homo sapiens). The experiment in a line: Inhibition of human plasma VAP-1 using 6-(5-Pheny1-2H-tetrazol-2-yl)hexan-1-amine as substrate at 10 uM preincubated with enzyme for 15 mins followed by substrate addition measured after 120 mins by UV-HPLC analysis relative to control. It is filed as cell-free. The note with it: time 135.0 min.

Series [17] concerns the target Amine oxidase [copper-containing] 1 (diamine oxidase, Sus scrofa) (UniProt Q9TRC7). The series can be described thus: Inhibition of porcine kidney DAO using 6-(5-phenyltetrazol-2-yl)hexan-1-amine as substrate at 10 uM preincubated with enzyme for 15 mins followed by substrate addition measured after 30 mins by UV-HPLC analysis relative to control. The note with it: time 45.0 min.

Sequence of Amine oxidase [copper-containing] 1 (diamine oxidase, Sus scrofa) (Q9TRC7 whole entry, looked up): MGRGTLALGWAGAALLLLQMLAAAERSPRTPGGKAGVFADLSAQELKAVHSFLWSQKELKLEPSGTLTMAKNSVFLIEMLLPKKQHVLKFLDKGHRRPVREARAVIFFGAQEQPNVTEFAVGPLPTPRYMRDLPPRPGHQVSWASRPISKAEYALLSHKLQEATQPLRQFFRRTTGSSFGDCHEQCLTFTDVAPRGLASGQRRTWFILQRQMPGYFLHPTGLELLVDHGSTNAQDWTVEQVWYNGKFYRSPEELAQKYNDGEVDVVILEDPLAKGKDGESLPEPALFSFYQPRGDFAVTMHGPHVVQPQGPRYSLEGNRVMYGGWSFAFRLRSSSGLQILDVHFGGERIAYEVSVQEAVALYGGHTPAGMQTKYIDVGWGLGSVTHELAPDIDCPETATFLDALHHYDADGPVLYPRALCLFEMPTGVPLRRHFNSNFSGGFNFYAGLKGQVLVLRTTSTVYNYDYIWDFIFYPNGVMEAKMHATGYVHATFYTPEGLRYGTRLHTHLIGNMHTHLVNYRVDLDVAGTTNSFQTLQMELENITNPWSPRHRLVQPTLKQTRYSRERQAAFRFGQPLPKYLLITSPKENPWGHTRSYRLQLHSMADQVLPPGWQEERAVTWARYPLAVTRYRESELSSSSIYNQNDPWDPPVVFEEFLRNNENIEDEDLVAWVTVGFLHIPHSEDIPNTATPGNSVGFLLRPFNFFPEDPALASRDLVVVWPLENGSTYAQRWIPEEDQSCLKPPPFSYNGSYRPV

As for `Cl.NCC(=O)NCc1cccc(Cn2nnc(-c3ccccc3)n2)c1`, the IC50 in series [1] was 0.16 µM; in series [2], 0.37 µM; in [11] it was 2.1 µM. Besides, the remaining at 0.25 h, 10 µM in series [3] is > 95%. In series [4], the remaining at 0.5 h, 10 µM is > 95%. Moreover, the remaining at 1 h, 10 µM in series [5] is 93%. Besides, the remaining at 2 h, 10 µM in series [6] was 84%. In addition, the remaining at 0.25 h, 1 µM in [7] was found to be 73%. The remaining at 0.5 h, 1 µM in [8] turned out to be 47%. Besides, the remaining at 1 h, 1 µM in [9] was < 5%. Besides, the remaining at 2 h, 1 µM in series [10] was < 5%. Moreover, the Ratio IC50 in [12] is 2; in [13], 50. The Stability result in series [14] is reported as “Stable”.

Take `NCC(=O)NCCCCCCn1nnc(-c2ccccc2)n1`: the remaining at 0.25 h, 10 µM in series [3] was determined as 80%. The remaining at 0.5 h, 10 µM in [4] is 58%. Also, the remaining at 2 h, 10 µM in series [6] was < 5%. In [11], the IC50 is > 100 µM. In addition, the inhibition in series [15] came to 23%. Moreover, the Stability result in [14] is recorded as “Unstable”.

With `CC(C)(C)NC(=O)c1ccc(OC/C(=C/F)CN)cc1`, the figures for the IC50 in series [1] and in [2] were 0.027 µM and 1 µM, respectively. The remaining at 0.25 h, 10 µM in series [3] is > 95%. For the same compound, in series [4], the remaining at 0.5 h, 10 µM is > 95%. For the same compound, in [5], the remaining at 1 h, 10 µM was > 95%. Besides, the remaining at 2 h, 10 µM in series [6] was > 95%. In addition, the remaining at 0.25 h, 1 µM in series [7] was > 95%. Moreover, the remaining at 0.5 h, 1 µM in [8] is > 95%. Besides, the remaining at 1 h, 1 µM in series [9] was > 95%. In series [10], the remaining at 2 h, 1 µM was 90%.

Turning to `N#Cc1ccc(-c2nnn(CCCCCCNC(=O)CN)n2)cc1`, the remaining at 0.25 h, 10 µM in series [3] came to 85%. Also, the remaining at 0.5 h, 10 µM in series [4] was 79%. In addition, in series [6], the remaining at 2 h, 10 µM was determined as 29%. This compound also returned a concentration for half-maximal inhibition (IC50) in [11] of 32 µM. In [16], this compound displayed an inhibition of 17%. The Ratio IC50 in [12] is 2. Also, in series [14], the Stability result is “Unstable”.

As for `Cl.N#Cc1ccc(-c2nnn(Cc3cccc(CNC(=O)CN)c3)n2)cc1`, the remaining at 0.25 h, 10 µM in series [3] worked out at 93%. The remaining at 0.5 h, 10 µM in series [4] stood at 95%. In addition, the remaining at 2 h, 10 µM in series [6] is 81%. In [7], the remaining at 0.25 h, 1 µM was 74%. In [8], the remaining at 0.5 h, 1 µM amounted to 49%. For the same compound, the remaining at 1 h, 1 µM in series [9] was < 5%. In addition, the remaining at 2 h, 1 µM in series [10] is < 5%. Further, the Ratio IC50 in series [12] worked out at 2; in series [13], 50. For the same compound, the Stability entry in series [14] is “Stable”.

For the compound `NCC(=O)NCc1cccc(-c2ccccc2)c1`, the remaining at 0.25 h, 10 µM in series [3] turned out to be 92%. Besides, the remaining at 0.5 h, 10 µM in [4] worked out at 85%. For the same compound, the remaining at 1 h, 10 µM in series [5] came to 66%. In addition, the remaining at 2 h, 10 µM in [6] is 23%. For the same compound, the Stability result in series [14] is “Unstable”. For the same compound, in series [17], the inhibition stood at 39%.
